In paper PMC7587337, “Kaempferol Facilitated Extinction Learning in Contextual Fear Conditioned Rats via Inhibition of Fatty-Acid Amide Hydrolase” (Molecules, 2020) one finds inhibition and IC50 data, which are given here for two molecules.

The target in assay [1] is T1, fatty-acid amide hydrolase (FAAH) (Homo sapiens, UniProt O00519).
T1 sequence (O00519 1-579): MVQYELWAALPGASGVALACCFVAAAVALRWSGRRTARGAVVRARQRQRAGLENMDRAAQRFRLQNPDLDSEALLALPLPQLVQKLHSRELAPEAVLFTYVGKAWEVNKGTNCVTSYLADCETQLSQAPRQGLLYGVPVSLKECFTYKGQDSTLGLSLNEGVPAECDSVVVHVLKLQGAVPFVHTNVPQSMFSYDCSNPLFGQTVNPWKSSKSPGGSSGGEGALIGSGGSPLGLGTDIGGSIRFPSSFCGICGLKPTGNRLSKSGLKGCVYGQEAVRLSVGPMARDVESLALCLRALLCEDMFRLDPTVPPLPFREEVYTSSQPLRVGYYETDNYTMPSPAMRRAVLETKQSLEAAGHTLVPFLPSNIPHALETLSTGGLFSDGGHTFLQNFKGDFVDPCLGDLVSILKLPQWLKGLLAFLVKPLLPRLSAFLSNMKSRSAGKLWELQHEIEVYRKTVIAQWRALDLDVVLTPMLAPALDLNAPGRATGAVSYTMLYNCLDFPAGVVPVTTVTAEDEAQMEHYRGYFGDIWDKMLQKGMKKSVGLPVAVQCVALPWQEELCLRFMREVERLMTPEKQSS
Put plainly: FAAH inhibitor screening assay kit (Cayman […]), percent inhibition at […]. It is filed as biochemical.

The target in assay [2] is T1, fatty-acid amide hydrolase (FAAH). In words: FAAH inhibitor screening assay kit (Cayman […]), dose-response […]. In kind it is biochemical.

In general, inhibition refers to how much of the control response was suppressed. A higher inhibition goes with strong suppression. The IC50 is the concentration at which inhibition is half-maximal.

Molecules are shown by their SMILES.

Turning to `O=C(Oc1ccc([N+](=O)[O-])cc1)N1CCN(Cc2cccc(Oc3ccccc3)c2)CC1` [JZL195], the inhibition at 10 µM in assay [1] was determined as 88 ± 1.26%. As to `O=c1c(O)c(-c2ccc(O)cc2)oc2cc(O)cc(O)c12` [kaempferol], the IC50 in assay [2] came out at 1.06 µM.
